Laboratory results published in PMC3218054, “Characterisation of the Interaction of the C-Terminus of the Dopamine D2 Receptor with Neuronal Calcium Sensor-1” (PLoS ONE, 2011).
Where two headings read alike, the source gives them in different places. Ends that are not written are not given here.

What was measured:
NCS-1 [1] = molecular target: T1, NCS-1 (Rattus norvegicus, UniProt P62168); test: Intrinsic tryptophan fluorescence titration of peptide binding to wild type NCS-1
T1 construct: His tag (TEV-cleavable, pET-M11) (N, cleaved yes); made in house; host or cells: E. coli BL21 (DE3)
Protocol: (§1) An expression construct of Rattus norvegicus NCS-1 [6] was sub-cloned from a pGEX-6p plasmid expressing NCS-1 [36] into pET-M11 vector. The primers were designed based on the cDNA sequence obtained from GenBank accession no. L27421 with Nco-1 and Kpn-1 as restriction digest sites. The sense and antisense strands were 5′[…] 3′ and 5′[…] CTA TAC CAG CCC GTC GTA 3 ′ respectively. Polymerase chain reaction was carried out using KOD Hot Start DNA Polymerase from Novagen. Confirmation of the insert was obtained through DNA sequencing. The R102Q mutation was generated by site-directed mutagenesis.
NCS-1 plasmid was transformed into E.coli strain BL21 (DE3) (Novagen). Protein expression in Luria Broth (LB) and 2M9 minimal media performed by growing the cells to mid log (0.6–0.7 OD A^o600) at 30 °C; after induction with 1 mM IPTG the culture was left to grow overnight at 18 °C. ^15N NCS-1 and doubly labelled ^13C^15N proteins were expressed using 2M9 media containing ^15NH4Cl only or ^13C glucose and ^15NH4Cl as the carbon and nitrogen source. 1 ml of the starter culture was grown in LB overnight, centrifuged, and the pellet added to a 50 ml labelled media and left to grow overnight in 50 ml labelled culture. The overnight culture was used to inoculate the labelled growth medium so that the starting optical density was less than 0.1 A-600 and protein expressed as described above. […]
(§2) To monitor intrinsic tryptophan fluorescence of NCS-1 proteins, [37], purified recombinant NCS-1 at a concentration of 1 µM in a calcium free buffer (20 mM HEPES, 139 mM NaCl, 2 mM ATP, 5 mM EGTA, 5 mM nitrolotriacetic acid, pH 7.4) were excited at room temperature with 280 nm light, and their emission spectra from 290–410 nm were measured, using a Jasco FP-6300 spectrofluorometer (Tokyo, Japan). The concentration of free calcium was increased by addition of CaCl2 to give a calculated free Ca^2+ concentration of 1 µM and an additional emission spectrum were measured. The D2 peptide was then added to give incremental increase in peptide concentration with emission spectra measured after each addition. The data for the measured fluorescence change at each peptide concentration were fitted to a logistic fit using non-linear curve fitting in OriginPro (Microcal).
Figure 2 Binding of the dopamine D2 receptor C-terminus to NCS-1 monitored using tryptophan fluorescence. (A) The spectra represent intrinsic tryptophan fluorescence of NCS-1 before and after addition 1 µM Ca^2+ and after subsequent addition of the D2SR peptide. (B) Extent of the changes in tryptophan fluorescence following sequential additions of D2SR peptide to the final concentrations indicated. […]

R102Q NCS-1 = molecular target: T2, R102Q NCS-1 (Rattus norvegicus, UniProt P62168, R102Q); test: Intrinsic tryptophan fluorescence titration of peptide binding to R102Q NCS-1
T2 construct: His tag (TEV-cleavable, pET-M11) (N, cleaved yes); made in house; host or cells: E. coli BL21 (DE3)
Protocol: as §1, §2
Figure 6 Significant line-broadening in the C-terminal region of NCS-1 and effect of the R102Q mutation on peptide binding. […] (B) Extent of the changes in tryptophan fluorescence following sequential additions of D2SR peptide to the final concentrations indicated in the presence of 1 µM Ca^2+. […] (C) Curve fitting of data from separate tryptophan fluorescence experiments enables determination of the concentration of D2SR peptide required for half-maximal binding and the Hill coefficient for wild type and R102Q NCS-1. […]

NCS-1 [2] = molecular target: T1, NCS-1; test: NMR titration / chemical shift mapping of peptide binding to NCS-1
Protocol: as §1
NCS-1 plasmid was transformed into E.coli strain BL21 (DE3) (Novagen). Protein expression in Luria Broth (LB) and 2M9 minimal media performed by growing the cells to mid log (0.6–0.7 OD A^o600) at 30 °C; after induction with 1 mM IPTG the culture was left to grow overnight at 18 °C. ^15N NCS-1 and doubly labelled ^13C^15N proteins were expressed using 2M9 media containing ^15NH4Cl only or ^13C glucose and ^15NH4Cl as the carbon and nitrogen source. 1 ml of the starter culture was grown in LB overnight, centrifuged, and the pellet added to a 50 ml labelled media and left to grow overnight in 50 ml labelled culture. The overnight culture was used to inoculate the labelled growth medium so that the starting optical density was less than 0.1 A-600 and protein expressed as described above. Cells were harvested and resuspended into the lysis buffer (50 mM TrisHCl, 200 mM NaCl 5 mMCaCl2 pH 7.5 plus a tablet per litre of culture of Complete EDTA Free Protease inhibitor (Roche Applied Science).
NCS-1 was prepared in Tris buffer pH 6.8 in the presence of 5 mM MgCl2 and 5 mM CaCl2. Unless otherwise state, NMR spectra were recorded at 27 °C on Bruker DRX 800 and 600 MHz spectrometers equipped with CryoProbes. Data were processed using the Bruker Software TopSpin and analysed using CCPN software. Sequence-specific backbone and side-chain resonance assignment of NCS-1 was transferred from the previously reported assignments on unmyristoylated Ca^2+ loaded NCS-1 (Biological Magnetic Resonance Data Bank accession number 4378); however, due to differences in sample conditions and temperature, many resonances were re-assigned during the course of these studies using HNCA, HN(CO)CA, HNCO, HN(CA)CO, CBCA(CO)NH, CBCANH, HBHA(CO)NH and HCCH-TOCSY experiments. In addition, the resonance assignment for the aromatic side-chain had been incomplete. The aromatic side-chains were partially assigned using 2D [^1H, ^13C] -TROSY, and homonuclear TOCSY and NOESY spectra recorded in D2O.
(§3) Two peptides D2 and D2SR were used for the NMR studies. […] The peptides were first dissolved in minimal amounts of DMSO (approximately 1–2 µl) before adding the protein solution to achieve the appropriate peptide to protein ratio.
The minimum chemical-shift differences between free and D2-bound NCS-1 were expressed as: Δδ = √ {(ΔH/0.03)^2 + (ΔN/0.03)^2}. Values of Δδ greater than 0.07 were considered significant.
Figure 3 Interactions between NCS-1 and D2 Peptide monitored using NMR spectroscopy. (A) ^1H^15N HSQC spectra of ^15N,^13C NCS-1 (1 mM) in 50 mM Tris buffer, 50 mM NaCl, 5 mM CaCl2, pH 6.5, 300 K on Avance Bruker 800 MHz spectrometer in the absence (black) or in the presence of D2SR at a final concentration of 5 mM (red). (B) Sections of ^1H^15N HSQC spectra of ^15N,^13C NCS-1 showing the progression of peaks throughout the peptide titration (from black to red). Shown are the various characteristics of resonance perturbation ranging from complete line-broadening to gradual change in chemical shifts or a mixture of shifts and line-broadening. (C) ^1H^13C HSQC spectra of ^15N,^13C NCS-1 (1 mM) (black) in the presence of D2SR (final concentration of 5 mM) (red) indicating some of the resolved methyl groups with most significant shift changes.

[3] = Solubility of peptides in aqueous buffer; format: physicochemical
Description: The peptide (hereafter referred to as D2 peptide) used here corresponds to residues 428–443 of the human D2 receptor. The synthetic D2 peptide ([…]) and its modified form D2SR ([…]), were purchased from Peptide Protein Research Ltd., Fareham, PO15 6DP, UK. The shorter form, corresponding to residues 428–435 ([…]) were, purchased from GenicBio, China. The peptides was delivered >95% pure. […] Therefore, in all the experiments, peptide samples were first dissolved in a minimal amount of DMSO and then diluted with the relevant buffer. If necessary, pH values of the samples were re-adjusted to the desired value.
as §3

NCS-1 [4] = conditions: receptor residues 428–435; cited from earlier work
Description: This seems surprising as these are the cytoplasmic residues in closest proximity to the transmembrane domain of the receptor and that in the structure of the dopamine D3 receptor (PDB accession 3PBL), the first two amino acids TF form part of penultimate helix VII of the receptor, rather than the C-terminus helix VIII.

NCS-1 [5] = test: Peptide binding to NCS-1, preliminary data (technique not stated)
[6] = up to a 10-fold excess of peptide

T2 sequence (P62168 whole entry R102Q): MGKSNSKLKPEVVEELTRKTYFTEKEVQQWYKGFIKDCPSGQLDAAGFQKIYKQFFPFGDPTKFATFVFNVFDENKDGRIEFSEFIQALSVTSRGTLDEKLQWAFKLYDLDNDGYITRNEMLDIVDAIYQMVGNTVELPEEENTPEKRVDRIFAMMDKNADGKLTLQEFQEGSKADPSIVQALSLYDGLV
T1 sequence (P62168 whole entry): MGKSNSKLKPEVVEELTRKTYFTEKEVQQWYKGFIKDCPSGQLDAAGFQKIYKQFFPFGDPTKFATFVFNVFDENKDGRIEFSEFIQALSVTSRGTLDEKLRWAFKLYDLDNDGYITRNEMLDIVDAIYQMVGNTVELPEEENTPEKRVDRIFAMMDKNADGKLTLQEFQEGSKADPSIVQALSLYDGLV

## TFNIEFRKAFLKILHSR [D2SR]
NCS-1 [1]; 1 µM free Ca^2+
  change in NCS-1 tryptophan fluorescence above that following addition of 1 µM free Ca^2+: additional increase in fluorescence of a similar magnitude
NCS-1 [1]; D2SR, wild type NCS-1, 1 µM free Ca^2+, logistic fit, n = 5
  Hill coefficient: ~1.5
R102Q NCS-1; D2SR, R102Q NCS-1, 1 µM Ca^2+, logistic fit, n = 4
  Hill coefficient: around 1.5
R102Q NCS-1; R102Q (n = 4) versus wild type (n = 5) NCS-1, 1 µM Ca^2+, unpaired Student's t-test
  increase in affinity of the protein for D2SR by R102Q mutation: 2.07 fold
R102Q NCS-1; compared with wild-type NCS-1
  affinity of binding to R102Q versus wild type NCS-1: affinity of binding was increased in the mutant
NCS-1 [2]; HSQC titration, D2SR
  exchange regime of NCS-1 resonances: intermediate to fast exchange regime
  least affected NCS-1 regions: helices1, 5, 8 and part of 2
  most affected NCS-1 regions, mapped onto 1G8I: residues located either in the hydrophobic ligand-binding crevice or in the regions linking the helical regions of the EF hands
NCS-1 [2]; ^1H-^15N and ^1H-^13C HSQC of ^15N,^13C NCS-1, 27 °C and 35 °C
  NCS-1 resonance perturbation (chemical shift changes/broadening): At both temperatures chemical shift changes and/or broadening of specific NCS-1 resonances were observed
NCS-1 [2]; ^1H^15N HSQC, peptide titration, 1 mM NCS-1, 0.5 mM D2SR, pH 6.5, 300 K
  line-broadening of C-terminal residues 180–190 (helix 11) of NCS-1: line-broadening occurring at sub-stoichiometric concentrations of D2SR
[3]; peptides first dissolved in DMSO, then diluted with buffer
  solubility in aqueous buffer: rather insoluble in aqueous buffer
[3]; two extra amino acids intended to increase solubility
  solubility improvement over D2 peptide: solubility improvement was only marginal

## TFNIEFRK [shorter form, corresponding to residues 428–435 of the D2 receptor]
NCS-1 [1]; 8-residue peptide, binding assays = fluorescence and NMR titrations
  ability to bind NCS-1 (restated finding, binding assays): not able to bind NCS-1
NCS-1 [1]; [6]
  interaction with NCS-1 by fluorescence titration: no evidence for an interaction
NCS-1 [2]; [6]
  interaction with NCS-1 by NMR titration: no evidence for an interaction
NCS-1 [4]
  binding to NCS-1 (yeast 2-hybrid): shortest peptide that could bind NCS-1

## NIEFRKAFLKILHS
NCS-1 [5]
  affinity for NCS-1 relative to TFNIEFRKAFLKILHS: able to bind NCS-1 with similar affinity to […]

## TFNIEFRKAFLKILHC [D2 peptide]
[3]
  solubility in aqueous buffer: rather insoluble in aqueous buffer
